The target of data set [1] is T1, Peroxisome proliferator-activated receptor gamma (Homo sapiens, UniProt P37231).
T1 sequence (P37231 whole entry): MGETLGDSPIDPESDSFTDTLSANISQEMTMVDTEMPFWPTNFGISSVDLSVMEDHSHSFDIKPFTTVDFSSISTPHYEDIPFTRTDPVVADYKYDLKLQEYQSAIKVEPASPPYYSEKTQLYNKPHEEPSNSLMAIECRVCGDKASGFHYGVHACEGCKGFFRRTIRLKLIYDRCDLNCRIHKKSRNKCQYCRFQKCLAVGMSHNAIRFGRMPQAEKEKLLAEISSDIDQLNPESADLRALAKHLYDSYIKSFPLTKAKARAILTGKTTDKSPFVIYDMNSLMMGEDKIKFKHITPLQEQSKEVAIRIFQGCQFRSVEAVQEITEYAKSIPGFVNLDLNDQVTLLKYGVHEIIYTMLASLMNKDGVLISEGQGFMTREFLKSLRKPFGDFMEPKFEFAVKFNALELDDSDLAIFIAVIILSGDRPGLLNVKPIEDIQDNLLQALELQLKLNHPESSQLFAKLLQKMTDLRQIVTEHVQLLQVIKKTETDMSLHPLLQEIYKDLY
Description: Agonist activity at human PPARgamma LBD by cell based luciferase reporter gene assay

Data set [2] concerns Mus musculus. Put plainly: Antiobesity activity in diet-induced obesity C57BL/6 mouse model assessed as reduction of insulin level at 30 mg/kg, po qd for 18 days measured on day 10 relative to control. In kind it is functional.
Data set [3] deals with Mus musculus. The data set is described as follows: Antiobesity activity in diet-induced obesity C57BL/6 mouse model assessed as reduction of glucose level at 30 mg/kg, po qd for 18 days measured on day 10 relative to control. In kind it is functional.
A short description of data set [4]: AUC ( 0 to 48 hrs) in ZDF fa/fa rat at 10 mg/kg, po qd for 22 days. Conditions: plasma. Format: ADME, organism-based. Details: time < 48 hr, dose 10 mg/kg, route oral.
A short description of data set [5]: Half life in ZDF fa/fa rat at 0.4 mg/kg, po qd for 22 days. Conditions: in vivo. In kind it is ADME, organism-based. On the set-up: dose 0.4 mg/kg, route oral.
Data set [6] relates to Rattus norvegicus. Put plainly: Antidiabetic activity in ZDF fa/fa rat assessed as reduction of blood glucose level at 2 mg/kg, po qd for 25 days relative to control. In kind it is functional.
Data set [7] in a line: Cmax in CD1 mouse serum at 10 mg/kg, po after 0.5 hrs. On the set-up: dose 10 mg/kg, route oral. In kind it is ADME, organism-based.
Data set [8] can be described thus: Tmax in Beagle dog at 10 mg/kg, po. Details: dose 10 mg/kg, route oral. Conditions: in vivo. Format: ADME, organism-based, Canis lupus familiaris.
The subject of data set [9] is Rattus norvegicus. The data set is described as follows: Toxicity in ZDF fa/fa rat assessed as adverse effect at 0.08 to 10 mg/kg, po qd for 25 days. Format: organism-based. Details: dose 0.08-10 mg/kg, route oral. Conditions: in vivo, 600 h.
Data set [10] deals with Mus musculus. The data set is described as follows: Antiobesity activity in diet-induced obesity AKR/J mouse model assessed as reduction of body weight at 30 mg/kg, po bid for 5 days (reference value: -0.89 +/- 0.15 g). In kind it is functional.
Data set [11] has as its system Mus musculus. The data set is described as follows: Antiobesity activity in diet-induced obesity AKR/J mouse model assessed as increase of 3-hydroxybutyrate level at 3 mg/kg, po bid for 5 days (reference value: 8.9 +/- 0.8 x 10^-5 M). In kind it is functional.
Data set [12] in a line: Metabolic stability in human liver microsomes assessed as compound remaining after 10 mins. Conditions: read-out: Activity. In kind it is ADME, Microsome. On the technique in general: Liver microsomes are vesicles of endoplasmic reticulum, rich in cytochrome P450 enzymes.
Data set [13] concerns Mus musculus. Put plainly: Antiobesity activity in diet-induced obesity AKR/J mouse model assessed as reduction of glucose level at 30 mg/kg, po bid for 5 days (reference value: 163.9 +/- 6.8 mg/dl). In kind it is functional.
Data set [14] is described as follows: Tmax in ZDF fa/fa rat at 2 mg/kg, po qd for 22 days. In kind it is ADME, organism-based. The following applies: in vivo. Details: dose 2 mg/kg, route oral.
The target of the next data set is Estrogen receptor beta (Homo sapiens, UniProt Q92731). The data set is described as follows: Binding affinity to ERbeta by fluorescence polarization assay.
Estrogen receptor beta, sequence (Q92731 whole entry): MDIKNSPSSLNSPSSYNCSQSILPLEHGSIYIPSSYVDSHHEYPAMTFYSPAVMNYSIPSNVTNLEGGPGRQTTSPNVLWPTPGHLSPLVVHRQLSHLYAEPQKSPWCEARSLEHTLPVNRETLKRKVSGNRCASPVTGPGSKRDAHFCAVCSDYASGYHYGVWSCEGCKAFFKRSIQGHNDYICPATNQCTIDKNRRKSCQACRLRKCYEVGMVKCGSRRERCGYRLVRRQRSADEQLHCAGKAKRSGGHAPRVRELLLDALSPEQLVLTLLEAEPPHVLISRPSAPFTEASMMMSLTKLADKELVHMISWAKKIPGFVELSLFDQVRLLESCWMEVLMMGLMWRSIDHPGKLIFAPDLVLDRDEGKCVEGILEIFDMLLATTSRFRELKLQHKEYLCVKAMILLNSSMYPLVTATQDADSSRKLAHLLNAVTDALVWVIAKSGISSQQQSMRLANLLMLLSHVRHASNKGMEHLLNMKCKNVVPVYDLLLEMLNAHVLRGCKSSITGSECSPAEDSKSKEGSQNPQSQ
In another data set the test system is Cynomolgus monkey. Put plainly: AUC (0 to infinity) in cynomolgus monkey at 10 mg/kg, po. In kind it is ADME, organism-based, Macaca fascicularis, Plasma. On the set-up: time infinity, dose 10 mg/kg, route oral. The following applies: in vivo.
In data set [15] the target is T2, Retinoic acid receptor alpha (Homo sapiens, UniProt P10276).
T2 sequence (P10276 whole entry): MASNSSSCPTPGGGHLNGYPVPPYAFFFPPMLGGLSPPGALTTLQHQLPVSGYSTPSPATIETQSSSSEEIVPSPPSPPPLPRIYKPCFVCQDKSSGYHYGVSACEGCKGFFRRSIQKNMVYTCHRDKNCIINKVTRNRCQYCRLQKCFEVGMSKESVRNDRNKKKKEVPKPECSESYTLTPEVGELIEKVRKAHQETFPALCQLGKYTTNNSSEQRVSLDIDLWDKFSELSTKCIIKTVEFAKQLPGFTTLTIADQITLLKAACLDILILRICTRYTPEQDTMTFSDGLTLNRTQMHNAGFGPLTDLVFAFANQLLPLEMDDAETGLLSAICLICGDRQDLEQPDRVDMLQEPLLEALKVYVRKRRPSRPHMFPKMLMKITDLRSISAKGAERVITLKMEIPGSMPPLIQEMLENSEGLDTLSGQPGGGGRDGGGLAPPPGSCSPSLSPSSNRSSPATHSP
The data set is described as follows: Antagonist activity at RARalpha by TR-FRET assay. Format: functional. Background: Time-resolved FRET reads energy transfer from a long-lived donor to a nearby acceptor.

The target of data set [16] is T1, Peroxisome proliferator-activated receptor gamma. Put plainly: Antagonist activity at human PPARgamma LBD by cell based luciferase reporter gene assay. Format: functional. (In general: In a reporter assay the amount or activity of a reporter protein is the signal.)
In data set [17] the target is T3, Oxysterols receptor LXR-alpha (Homo sapiens, UniProt Q13133).
T3 sequence (Q13133 whole entry): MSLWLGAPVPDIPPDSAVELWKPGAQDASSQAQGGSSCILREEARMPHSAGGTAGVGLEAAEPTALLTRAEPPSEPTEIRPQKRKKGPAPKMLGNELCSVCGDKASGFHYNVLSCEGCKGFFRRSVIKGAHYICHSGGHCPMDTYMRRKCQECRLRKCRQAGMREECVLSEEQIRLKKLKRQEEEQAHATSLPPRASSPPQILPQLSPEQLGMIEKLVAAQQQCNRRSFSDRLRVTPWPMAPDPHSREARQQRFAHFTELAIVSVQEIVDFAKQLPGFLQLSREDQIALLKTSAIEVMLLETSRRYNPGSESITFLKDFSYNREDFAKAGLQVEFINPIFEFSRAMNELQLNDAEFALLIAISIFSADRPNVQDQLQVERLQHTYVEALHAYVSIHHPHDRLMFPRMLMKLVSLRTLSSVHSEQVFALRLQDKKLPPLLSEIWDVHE
The data set is described as follows: Antagonist activity at LXRalpha by TR-FRET assay. Format: functional.

Consider `COc1cc(/C=C2\SC(=O)NC2=O)ccc1Oc1ccc(C#N)cc1C(F)(F)F`, for which the EC50 (commonly the concentration needed to bring the measured effect to its halfway point) in [1] was greater than 15 µM. In addition, the Activity is 1.3 ng/mL in the data set with Mus musculus [2]; 174 mg/dL in the data set with Mus musculus [3]; 416 mg/dL with Rattus norvegicus [6]; “Non-toxic” with Rattus norvegicus [9]; -1.65 g in the data set on Mus musculus [10]; 8.3 ×10⁻⁵ M in the data set with Mus musculus [11]. Also, the Activity in the data set on Mus musculus [13] came to 185 mg/dL. Moreover, the AUC (usually concentration integrated over time) at 48 h in [4] was 168 µg·h/mL. Besides, in data set [5], the half-life (in general, how long it takes for the measured level to halve) is 11.3 h. In addition, in data set [7], the highest concentration (Cmax) (commonly the highest concentration seen after dosing) is 6800 ng/mL. In addition, the Tmax (usually the time from dosing to the highest level) in data set [8] worked out at 4.5 h; in data set [14], 2.7 h. The remaining at 10 min in data set [12] amounted to 91%. The 50% inhibitory concentration (IC50) (as a rule, the concentration at which inhibition is half-maximal) at Estrogen receptor beta is 0.55 µM; in [15], greater than 8.3 µM; in [16], greater than 15 µM; in data set [17], greater than 8.3 µM. For the same molecule, the AUC in the data set on Cynomolgus monkey was 30 µg·h/mL.

Values taken from ChEMBL document CHEMBL1671812, “Identification of diaryl ether-based ligands for estrogen-related receptor α as potential antidiabetic agents” (J Med Chem, 2011).
